Measured values: patent US20070082903A1, “Remedy for rheumatoid arthritis” (priority 2003, published 2007)

Legend:
[1] = tested on: patients with rheumatoid arthritis; experiment: administration to patients with rheumatoid arthritis, ACR criterion evaluation at 16 weeks; assay type: in vivo, human; conditions: for improvement rate: SF-36 mental scale / improvement rate: SF-36 physical scale / improvement rate: erythrocyte sedimentation rate / improvement rate: patient's self-assessed physical functions / improvement rate: reduction of swollen joint count / improvement rate: reduction of tender joint count / improvement rate: patient's assessment of pain / improvement rate: patient's global assessment of disease activity / improvement rate: physician's global assessment of disease activity / improvement rate: CRP: 16 weeks vs initial value; for improvement rate: patient's assessment of pain / improvement rate: patient's global assessment of disease activity / improvement rate: physician's global assessment of disease activity: VAS; for improvement rate: CRP: in % (unit assumed)
From the text: When 20% or more improvement is observed in the items 1) and 2) and 20% or more improvement is observed in at least three of the five items 3) to 7), the therapeutic effect is rated as “20% improvement on the criterion established by the American College of Rheumatology” (20% improvement on the ACR criterion). • 1) Reduction of tender joint count. • 2) Reduction of swollen joint count. • 3) Patient's global assessment of disease activity. • 4) Physician's global assessment of disease activity. • 5) Patient's assessment of pain. • 6) Patient's self-assessed physical functions. • 7) CRP or erythrocyte sedimentation rate.
Similarly, when 50% or more improvement is observed in the items 1) and 2) and 50% or more improvement is observed in at least three of the five items 3) to 7), the therapeutic effect is rated as “50% improvement on the criterion established by the American College of Rheumatology” (50% improvement on the ACR criterion).
SMP-114 was orally administered once a day after a meal to patients with rheumatoid arthritis who had been treated with 1 to 5 DMARDs other than SMP-114 (to whom these DMARDs seemed to be non-administrable because of their side effects, or for whom these DMARDs seemed to be ineffective or insufficiently effective). As to the dose, a placebo, 40 mg/day, 80 mg/day and 120 mg/day were employed (about 50 cases per group). […] SMP-114 was continuously administered to patients in whom the standard had been reached, until the 24th week while keeping the test blind. Sixteen weeks after the start of the administration, the placebo group, 40 mg/day group, 80 mg/day group and 120 mg/day group were compared with respect to the proportion of patients satisfying the requirement “20% improvement on the criterion established by the American College of Rheumatology”, whereby the efficacy of the SMP-114 was evaluated (in the present example, the following ratings were given on a visual analogue scale (VAS): 3) a patient's global assessment of disease activity, 4) a physician's global assessment of disease activity, and 5) a patient's assessment of pain, on the ACR criterion.).
When the following improvements are observed on the above-mentioned criterion of improvement established by the American College of Rheumatology, it is judged that “50% improvement on the criterion established by the American College of Rheumatology” (50% improvement on the ACR criterion) has been achieved: 50% or more improvement is observed in the items 1) and 2) and 50% or more improvement is observed in at least three of the five items 3) to 7). The efficacy of SMP-114 may be evaluated on the basis of the proportion of patients satisfying the requirement “50% improvement on the criterion established by the American College of Rheumatology”.
The efficacy of SMP-114 may be evaluated on the basis of improvement rates of the above-mentioned rating items on the criterion established by the American College of Rheumatology and QOL measure (SF-36) (Ware, J E. & Sherbourne C D., “The MOS 36-Item Short-Form Health Survey (SF-36); 1. Conceptual 10 Framework and Item Selection.”, Med Care 1981; 18:806). The improvement rates may be expressed as the rates of change calculated on the basis of the difference between values obtained 16 weeks after the start of the administration and initial values obtained before the start of the administration.
Stratification analysis was carried out by employing as an indication the history of treatment with disease modifying antirheumatic drugs (DMARDs) other than SMP-114, i.e., the number of the DMARDs other than SMP-114 which had been used. There are shown below the results of the analysis carried out by dividing patients into patients with rheumatoid arthritis who had been treated with one or two DMARDs other than SMP-114 (group A) and patients with rheumatoid arthritis who had been treated with 3 to 5 DMARDs other than SMP-114 (group B). […]

[2] = tested on: mice with collagen arthritis; conditions: cited from earlier work
[3] = 40 mg/day, 16 weeks, erythrocyte sedimentation rate used as item 7)
[4] = 80 mg/day, 16 weeks, erythrocyte sedimentation rate used as item 7)
[5] = 120 mg/day, 16 weeks, erythrocyte sedimentation rate used as item 7)
[6] = total active groups, patient's assessment of pain (VAS) < 67
[7] = total active groups, patient's assessment of pain (VAS) ≧ 67
[8] = total active groups, physician's global assessment (VAS) < 63
[9] = total active groups, physician's global assessment (VAS) ≧ 63

## C[C@@H](c1ccc(-c2ccccc2)c(F)c1)c1cc(/N=C(/N)N2CCOCC2)on1 [SMP-114, 3-[(1S)-1-(2-fluorobiphenyl-4-yl)ethyl]-5-{[amino(morpholin-4-yl)methylene]amino}isoxazole]
[1]; 40 mg/day
  improvement rate: SF-36 mental scale: 43.7%
  improvement rate: SF-36 physical scale: 33.3%
  improvement rate: erythrocyte sedimentation rate: 3.2%
  improvement rate: patient's self-assessed physical functions: 4.3%
  improvement rate: reduction of swollen joint count: 22.3%
  improvement rate: reduction of tender joint count: 16.0%
  improvement rate: patient's assessment of pain: 17.1%
  improvement rate: patient's global assessment of disease activity: 19.3%
  improvement rate: physician's global assessment of disease activity: 12.7%
  improvement rate: CRP: −12.3
[1]; 40 mg/day, 16 weeks, CRP used as item 7)
  ACR20 improvement rate: 38.2%
[1]; [3]
  ACR20 improvement rate: 38.2%
  ACR50 improvement rate: 10.9%
[1]; 40 mg/day, 55 patients
  Number of ACR50 responders: 6
[1]; 40 mg/day, 55 patients, CRP used
  Number of ACR20 responders: 21
[1]; 40 mg/day, 55 patients, erythrocyte sedimentation rate used
  Number of ACR20 responders: 21
[1]; 80 mg/day
  improvement rate: SF-36 mental scale: 46.1%
  improvement rate: SF-36 physical scale: 28.8%
  improvement rate: erythrocyte sedimentation rate: 4.0%
  improvement rate: patient's self-assessed physical functions: 10.6%
  improvement rate: reduction of swollen joint count: 18.7%
  improvement rate: reduction of tender joint count: 27.6%
  improvement rate: patient's assessment of pain: 16.5%
  improvement rate: patient's global assessment of disease activity: 20.5%
  improvement rate: physician's global assessment of disease activity: 21.5%
  improvement rate: CRP: −26.4
[1]; 80 mg/day, 16 weeks, CRP used as item 7)
  ACR20 improvement rate: 34.5%
[1]; [4]
  ACR20 improvement rate: 36.4%
  ACR50 improvement rate: 10.9%
[1]; 80 mg/day, 55 patients
  Number of ACR50 responders: 6
[1]; 80 mg/day, 55 patients, CRP used
  Number of ACR20 responders: 19
[1]; 80 mg/day, 55 patients, erythrocyte sedimentation rate used
  Number of ACR20 responders: 20
[1]; 120 mg/day
  improvement rate: SF-36 mental scale: 44.8%
  improvement rate: SF-36 physical scale: 30.2%
  improvement rate: erythrocyte sedimentation rate: −7.5%
  improvement rate: patient's self-assessed physical functions: −8.7%
  improvement rate: reduction of swollen joint count: 19.7%
  improvement rate: reduction of tender joint count: 22.7%
  improvement rate: patient's assessment of pain: 17.1%
  improvement rate: patient's global assessment of disease activity: 14.2%
  improvement rate: physician's global assessment of disease activity: 24.1%
  improvement rate: CRP: −98.6
[1]; 120 mg/day, 16 weeks, CRP used as item 7)
  ACR20 improvement rate: 37.0%
[1]; [5]
  ACR20 improvement rate: 37.0%
  ACR50 improvement rate: 13.0%
[1]; 120 mg/day, 54 patients
  Number of ACR50 responders: 7
[1]; 120 mg/day, 54 patients, CRP used
  Number of ACR20 responders: 20
[1]; 120 mg/day, 54 patients, erythrocyte sedimentation rate used
  Number of ACR20 responders: 20
[1]; total active groups (40, 80, 120 mg/day), Group A, DMARDs treatment history = 1-2 drugs
  ACR20 improvement rate: 44%
[1]; total active groups (40, 80, 120 mg/day), Group B, DMARDs treatment history = 3-5 drugs
  ACR20 improvement rate: 32%
[1]; total active groups, Group A, DMARDs treatment history = 1-2 drugs
  ACR20 responders / cases: 32/72
[1]; total active groups, Group B, DMARDs treatment history = 3-5 drugs
  ACR20 responders / cases: 29/92
[1]; [6]
  ACR20 improvement rate: 50%
  ACR20 responders / cases: 36/72
[1]; [7]
  ACR20 improvement rate: 27%
  ACR20 responders / cases: 25/92
[1]; [8]
  ACR20 improvement rate: 42%
  ACR20 responders / cases: 31/74
[1]; [9]
  ACR20 improvement rate: 33%
  ACR20 responders / cases: 30/90
[2]; mice with collagen arthritis
  antiarthritic effect: antiarthritic effect
[2]; once-a-day oral administration
  minimum effective amount for antiarthritic effect: 5 mg/kg
